Measurements published in ChEMBL document CHEMBL4342507, “Targeting YAP Degradation by a Novel 1,2,4-Oxadiazole Derivative via Restoration of the Function of the Hippo Pathway” (ACS Med Chem Lett, 2020).
Calls of active or inactive are those of the source. The calls are words filed in the database; no cut-off is given here.

How the values were obtained:
[1] = tested on: PC-3; assay: Cytostatic activity against human PC3 cells assessed as cell viability at concentration of greater than IC50 measured up to 72 hrs by MTT assay; type: functional, cell-based
[2] = tested on: SUM-159-PT; assay: Downregulation of TAZ protein expression in human SUM159 cells at 0.25 to 1.5 uM measured after 12 to 24 hrs by immunoblotting analysis; type: functional, cell-based
[3] = tested on: MDA-MB-231; assay: Downregulation of TAZ protein expression in human MDA-MB-231 cells at 0.25 to 1.5 uM measured after 24 to 48 hrs by immunoblotting analysis; type: functional, cell-based
[4] = Acute toxicity in athymic Nude-Foxn1nu BALB/c mouse xenografted with human MDA-MB-231 cells assessed as effect on body weight at 200 mg/kg, po administered once daily via gavage for 40 days and measured twice a week during treatment period; type: organism-based; details: in vivo, 960 h
[5] = biological target: T1, Serine/threonine-protein kinase 3/4 (Homo sapiens) (UniProt Q13043+Q13188); assay: Activation of MST1/2 in human SUM159 cells assessed as effect on phosphorylation at T183/T180 residues at 0.25 to 1.5 uM measured after 12 hrs by Western blot analysis; type: cell-based
[6] = tested on: MDA-MB-231; assay: Cytotoxicity against human MDA-MB-231 cells assessed as reduction in cell viability at 0.2 to 1.2 uM by MTT assay; type: functional, cell-based; details: TDE = time-dependent effect
[7] = tested on: MDA-MB-231; assay: Activation of MOB in human MDA-MB-231 cells assessed as phosphorylation at Thr35 residue at 0.25 to 1.25 uM measured after 24 hrs by Western blot analysis; type: cell-based
[8] = tested on: MDA-MB-231; assay: Antitumor activity against human MDA-MB-231 cells xenografted in athymic Nude-Foxn1nu BALB/c mouse assessed as tumor growth suppression at 200 mg/kg, po administered once daily via gavage for 40 days and measured twice a week during treatment period by caliper method relative to control; type: functional; details: MDA-MB-231, po, 960 h
[9] = biological target: T2, Serine/threonine-protein kinase LATS1 (Homo sapiens) (UniProt O95835); assay: Activation of LATS1 in human MDA-MB-231 cells assessed as induction of YAP degradation by measuring suppression of YAP protein expression at 0.5 uM pretreated with compound for 24 hrs followed by incubation with protein synthesis inhibitor, CHX up to 48 hrs by Western blot analysis; type: cell-based
T2 sequence (whole entry): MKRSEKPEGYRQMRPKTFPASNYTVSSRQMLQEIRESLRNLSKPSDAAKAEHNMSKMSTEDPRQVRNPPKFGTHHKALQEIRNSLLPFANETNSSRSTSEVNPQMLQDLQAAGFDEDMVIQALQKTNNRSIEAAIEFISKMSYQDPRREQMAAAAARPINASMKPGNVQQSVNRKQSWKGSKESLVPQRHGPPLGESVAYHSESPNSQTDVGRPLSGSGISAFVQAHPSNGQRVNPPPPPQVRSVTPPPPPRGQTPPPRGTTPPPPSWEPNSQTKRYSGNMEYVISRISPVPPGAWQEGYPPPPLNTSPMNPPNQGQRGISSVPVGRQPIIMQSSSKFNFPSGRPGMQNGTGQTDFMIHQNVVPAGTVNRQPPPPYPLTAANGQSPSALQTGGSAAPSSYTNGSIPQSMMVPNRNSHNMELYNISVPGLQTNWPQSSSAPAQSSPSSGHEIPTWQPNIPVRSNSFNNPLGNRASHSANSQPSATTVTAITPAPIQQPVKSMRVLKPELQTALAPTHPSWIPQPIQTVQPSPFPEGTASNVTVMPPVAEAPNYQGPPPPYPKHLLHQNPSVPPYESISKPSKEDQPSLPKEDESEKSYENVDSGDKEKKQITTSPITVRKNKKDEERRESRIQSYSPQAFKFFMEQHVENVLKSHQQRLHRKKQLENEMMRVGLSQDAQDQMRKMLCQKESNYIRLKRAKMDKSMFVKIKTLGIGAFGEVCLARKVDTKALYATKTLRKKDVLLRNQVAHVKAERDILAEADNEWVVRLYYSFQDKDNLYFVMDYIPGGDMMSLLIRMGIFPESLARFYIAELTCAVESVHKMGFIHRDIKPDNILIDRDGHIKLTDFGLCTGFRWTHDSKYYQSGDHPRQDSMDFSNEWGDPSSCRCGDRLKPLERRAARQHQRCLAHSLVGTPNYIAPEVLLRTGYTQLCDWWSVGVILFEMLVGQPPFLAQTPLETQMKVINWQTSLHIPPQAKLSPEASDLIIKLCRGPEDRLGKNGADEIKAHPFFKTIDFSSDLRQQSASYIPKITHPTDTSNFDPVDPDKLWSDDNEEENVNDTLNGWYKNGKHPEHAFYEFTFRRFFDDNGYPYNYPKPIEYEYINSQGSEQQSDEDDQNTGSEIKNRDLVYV

[10] = tested on: Mus musculus; assay: Downregulation of C-myc protein expression in tumor of athymic Nude-Foxn1nu BALB/c mouse xenografted with human MDA-MB-231 cells at 200 mg/kg, po administered once daily via gavage for 40 days by immunoblotting analysis; type: functional, organism-based
[11] = biological target: T1, Serine/threonine-protein kinase 3/4 (Homo sapiens); assay: Activation of MST1/2 in human MDA-MB-231 cells assessed as effect on phosphorylation at T183/T180 residues at 0.25 to 1.5 uM measured after 24 hrs by Western blot analysis; type: cell-based
[12] = tested on: PC-3; assay: Cytotoxicity against human PC3 cells assessed as reduction in cell viability at 0.2 to 1.2 uM by MTT assay; type: functional, cell-based; details: TDE = time-dependent effect
[13] = tested on: PC-3; assay: Effect on MST1 expression in human PC3 cells at 0.25 to 1.5 uM measured after 24 hrs by Western blot analysis; type: functional, cell-based
[14] = biological target: T2, Serine/threonine-protein kinase LATS1 (Homo sapiens); assay: Activation of LATS1 in human PC3 cells assessed as increase in YAP phosphorylation at Ser397 at 0.25 to 1.5 uM measured after 12 to 24 hrs by immunoblotting analysis; type: cell-based
[15] = tested on: Mus musculus; assay: Downregulation of cyclin D1 protein expression in tumor of athymic Nude-Foxn1nu BALB/c mouse xenografted with human MDA-MB-231 cells at 200 mg/kg, po administered once daily via gavage for 40 days by immunoblotting analysis; type: functional, organism-based
[16] = biological target: T2, Serine/threonine-protein kinase LATS1 (Homo sapiens); assay: Activation of LATS1 in human SUM159 cells assessed as induction of YAP degradation by measuring suppression of YAP protein expression at 0.25 to 1.5 uM measured after 12 to 24 hrs by immunoblotting analysis; type: cell-based
[17] = Acute toxicity in athymic Nude-Foxn1nu BALB/c mouse xenografted with human MDA-MB-231 cells assessed as effect on serum AST level at 200 mg/kg, po administered once daily via gavage for 14 days; type: organism-based; details: in vivo, 336 h
[18] = biological target: T2, Serine/threonine-protein kinase LATS1 (Homo sapiens); assay: Activation of LATS1 in triple-negative human SUM159 cells assessed as induction of YAP degradation by measuring suppression of YAP protein expression at 0.25 to 1 uM measured after 12 hrs by Western blot analysis
[19] = tested on: PC-9; assay: Downregulation of TAZ protein expression in human PC9 cells at 0.25 to 1.5 uM measured after 12 to 24 hrs by immunoblotting analysis; type: functional, cell-based
[20] = biological target: T2, Serine/threonine-protein kinase LATS1 (Homo sapiens); assay: Activation of LATS1 in human MDA-MB-231 cells assessed as increase in phosphorylation at Thr1079 residue measured after 24 hrs by Western blot analysis; type: cell-based

T1 sequence (Q13043 whole entry, looked up): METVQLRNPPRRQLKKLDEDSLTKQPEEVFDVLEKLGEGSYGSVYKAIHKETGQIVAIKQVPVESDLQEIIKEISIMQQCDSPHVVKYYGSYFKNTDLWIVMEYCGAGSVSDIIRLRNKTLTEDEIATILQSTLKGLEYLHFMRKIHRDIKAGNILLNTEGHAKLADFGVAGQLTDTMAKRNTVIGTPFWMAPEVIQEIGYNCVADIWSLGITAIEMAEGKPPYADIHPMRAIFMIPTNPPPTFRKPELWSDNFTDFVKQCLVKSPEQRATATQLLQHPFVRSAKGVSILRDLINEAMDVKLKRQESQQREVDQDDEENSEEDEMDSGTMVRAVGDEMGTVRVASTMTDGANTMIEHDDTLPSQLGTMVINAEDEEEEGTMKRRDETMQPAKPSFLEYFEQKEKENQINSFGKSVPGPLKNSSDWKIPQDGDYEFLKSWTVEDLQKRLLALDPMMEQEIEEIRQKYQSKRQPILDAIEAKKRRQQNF
T1 sequence (Q13188 whole entry, looked up): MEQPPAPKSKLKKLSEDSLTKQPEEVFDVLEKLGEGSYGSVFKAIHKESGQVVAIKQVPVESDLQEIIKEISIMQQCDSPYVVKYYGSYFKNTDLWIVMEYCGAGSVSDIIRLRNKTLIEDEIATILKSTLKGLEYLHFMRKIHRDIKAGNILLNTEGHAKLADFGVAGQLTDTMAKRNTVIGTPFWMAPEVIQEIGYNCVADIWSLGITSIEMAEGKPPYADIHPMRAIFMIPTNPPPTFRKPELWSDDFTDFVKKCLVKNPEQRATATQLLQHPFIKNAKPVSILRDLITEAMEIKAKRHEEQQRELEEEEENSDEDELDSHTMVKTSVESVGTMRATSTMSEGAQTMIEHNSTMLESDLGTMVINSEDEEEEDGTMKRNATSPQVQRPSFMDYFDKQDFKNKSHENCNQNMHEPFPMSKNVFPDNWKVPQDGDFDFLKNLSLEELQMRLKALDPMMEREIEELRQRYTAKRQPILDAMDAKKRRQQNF

SMILES: CC(=O)Nc1ccc(NC(=O)Nc2cccc(-c3nc(-c4ccc(NC(=O)c5cccnc5)cc4Cl)no3)c2)cc1C(F)(F)F
- Activity [1]: Active
- inhibition [2]: Active
- inhibition [3]: Active
- Activity [4]: Non-Toxic
- Activity [5]: inactive
- Activity [6]: Tde
- Activity [7]: Active
- inhibition in vivo at 200 mg/kg [8]: 65%
- Activity [9]: Active
- inhibition [10]: Active
- Activity [11]: inactive
- Activity [12]: Tde
- Activity [13]: inactive
- Activity [14]: Active
- inhibition [15]: Active
- Activity [16]: Active
- Activity [17]: Non-Toxic
- Activity [18]: Active
- inhibition [19]: Active
- Activity [20]: Dose-dependent effect
